# Legend:
# Format in all cases: functional
# [1] = system: Mycobacterium tuberculosis; test: AntiMycobacterium tuberculosis activity 1-week 7H9/cholesterol/BSA/Tx MIC (uM); conditions: 168 h
# [2] = system: Mycobacterium tuberculosis; test: AntiMycobacterium tuberculosis activity 2-week 7H9/glucose/BSA/Tx MIC (uM); conditions: 336 h
# [3] = system: Mycobacterium tuberculosis; test: AntiMycobacterium tuberculosis activity 1-week 7H9/ADC/Tw MIC (uM); conditions: 168 h
# [4] = system: Mycobacterium tuberculosis; test: (§1) AntiMycobacterium tuberculosis activity day 10 in 7H9/2.5mM butyrate/pH6/0.1mM nitrite MIC90 (uM); conditions: 240 h
# [5] = system: Mycobacterium tuberculosis; test: AntiMycobacterium tuberculosis activity 1-week 7H9/DPPC/cholesterol/BSA/Tx MIC (uM); conditions: 168 h
# [6] = system: Mycobacterium tuberculosis; test: AntiMycobacterium tuberculosis activity Non-Replicating form: Average MIC90 (uM)
# [7] = system: Mycobacterium tuberculosis; test: AntiMycobacterium tuberculosis activity 2-week Alamar Blue 7H9/cholesterol/BSA/Tx MIC (uM); conditions: 336 h
# [8] = system: Mycobacterium tuberculosis; test: AntiMycobacterium tuberculosis activity day 21 in 7H9/2.5mM butyrate/pH6/0.1mM nitrite MIC90 (uM); conditions: 504 h
# [9] = system: Mycobacterium tuberculosis; test: as §1; conditions: 240 h; remark: listed apart in the source
# [10] = system: Mycobacterium tuberculosis; test: AntiMycobacterium tuberculosis activity 2-week 7H9/ADC/Tw MIC (uM); conditions: 336 h
# [11] = system: Mycobacterium tuberculosis; test: AntiMycobacterium tuberculosis activity day 21 MIC99 in 7H9/2.5mM butyrate/pH6/0.1mM nitrite MIC99 (uM); conditions: 504 h
# [12] = system: Mycobacterium tuberculosis; test: AntiMycobacterium tuberculosis activity 1-week GAST/Fe MIC (uM); conditions: 168 h
# [13] = system: HepG2; test: HepG2 CC50 (uM) Cytotoxicity; conditions: Homo sapiens
# [14] = system: Mycobacterium tuberculosis; test: AntiMycobacterium tuberculosis activity 2-week Alamar Blue 7H9/ADC/Tw MIC (uM); conditions: 336 h
# [15] = system: Mycobacterium tuberculosis; test: AntiMycobacterium tuberculosis activity 2-week 7H9/DPPC/cholesterol/BSA/Tx MIC (uM); conditions: 336 h
# [16] = system: Mycobacterium tuberculosis; test: AntiMycobacterium tuberculosis activity Replicating form: Average MIC90 (uM)
# [17] = system: Mycobacterium tuberculosis; test: AntiMycobacterium tuberculosis activity 1-week 7H9/glucose/BSA/Tx MIC (uM); conditions: 168 h
# [18] = system: Mycobacterium tuberculosis; test: AntiMycobacterium tuberculosis activity 2-week GAST/Fe MIC (uM); conditions: 336 h
Structure (SMILES),MIC [1],MIC [2],MIC [3],MIC90 [4],MIC [5],MIC90 [6],MIC [7],MIC90 [8],MIC90 [9],MIC [10],MIC [11],MIC [12],CC50 [13],MIC [14],MIC [15],MIC90 [16],MIC [17],MIC [18]
COc1ccc2nc(C)cc(OCC(=O)Nc3ccccc3OC)c2c1,12.5 µM,50 µM,37 µM,> 50 µM,1.56 µM,1.61 µM,2.3 µM,> 50 µM,> 50 µM,> 50 µM,> 50 µM,0.05 µM,57.4 µM,2.3 µM,25 µM,> 50 µM,25 µM,0.1 µM
Cc1nn(Cc2ccccc2)c(Cl)c1C(=O)NC1CCCCCC1,1.56 µM,> 50 µM,19 µM,3.12 µM,4.7 µM,5.96 µM,2.3 µM,25 µM,3.12 µM,50 µM,25 µM,0.39 µM,> 100 µM,6.25 µM,6.25 µM,> 100 µM,37 µM,0.39 µM
O=C(NCc1ccoc1)N1CCN(Cc2ccc3c(c2)OCO3)CC1,3.13 µM,> 50 µM,> 50 µM,6.25 µM,4.7 µM,57.1 µM,2.3 µM,25 µM,6.25 µM,> 50 µM,25 µM,0.39 µM,> 100 µM,6.25 µM,25 µM,> 100 µM,37 µM,0.78 µM
N#Cc1nc(-c2ccccc2)oc1S(=O)(=O)c1ccc(Cl)cc1,6.25 µM,6.25 µM,3.13 µM,6.25 µM,6.25 µM,0.41 µM,12.5 µM,12.5 µM,> 50 µM,6.25 µM,> 50 µM,0.6 µM,2.2 µM,6.25 µM,12.5 µM,2.59 µM,3.13 µM,0.6 µM
O=C(NCc1ccco1)N1CCN(Cc2ccc(Cl)s2)CC1,37 µM,> 50 µM,> 50 µM,50 µM,37 µM,90.2 µM,12.5 µM,> 50 µM,> 50 µM,> 50 µM,> 50 µM,0.6 µM,> 100 µM,12.5 µM,50 µM,> 100 µM,> 50 µM,1.2 µM
COc1cc(C(F)(F)F)nc2ccc(C)c(N)c12,2.3 µM,> 50 µM,> 50 µM,3.12 µM,4.7 µM,16.1 µM,3.13 µM,6.25 µM,> 50 µM,> 50 µM,> 50 µM,0.2 µM,> 100 µM,12.5 µM,50 µM,> 100 µM,25 µM,0.6 µM
Cc1cc(Cl)ccc1NC(=O)CCc1ccc(S(=O)(=O)NCC(C)C)cc1,3.13 µM,6.25 µM,4.7 µM,> 50 µM,3.13 µM,13.4 µM,6.25 µM,25 µM,> 50 µM,6.25 µM,50 µM,2.3 µM,> 100 µM,6.25 µM,3.13 µM,14.4 µM,4.7 µM,2.3 µM
CCOC(=O)NC(=O)c1ccsc1NC(=O)c1nc2ccccc2s1,0.05 µM,0.2 µM,0.2 µM,≤ 0.04 µM,0.1 µM,0.34 µM,0.1 µM,≤ 0.04 µM,0.19 µM,0.15 µM,0.09 µM,< 0.02 µM,47 µM,0.15 µM,0.1 µM,0.69 µM,0.2 µM,< 0.02 µM
O=C(C1CCN(c2nnc(-n3cccc3)s2)CC1)N1CCC(Cc2ccccc2)CC1,0.02 µM,0.1 µM,0.1 µM,0.19 µM,0.02 µM,0.8 µM,0.05 µM,0.19 µM,0.78 µM,0.07 µM,0.78 µM,0.02 µM,> 100 µM,0.07 µM,0.04 µM,0.94 µM,0.1 µM,0.02 µM
N#Cc1nc(-c2ccccc2F)oc1NCCc1ccccc1,19 µM,> 50 µM,> 50 µM,50 µM,12.5 µM,75.5 µM,12.5 µM,> 50 µM,> 50 µM,> 50 µM,> 50 µM,0.78 µM,> 100 µM,37 µM,50 µM,> 100 µM,> 50 µM,1.56 µM
CCc1nc2ccc(Cl)cn2c1C(=O)NCc1ccc(N2CCC(c3ccc(OC(F)(F)F)cc3)CC2)cc1 [TELACEBEC],< 0.02 µM,> 50 µM,> 50 µM,≤ 0.04 µM,< 0.02 µM,0.01 µM,0.02 µM,≤ 0.04 µM,≤ 0.04 µM,> 50 µM,≤ 0.04 µM,< 0.02 µM,> 100 µM,0.02 µM,0.02 µM,0.01 µM,0.1 µM,< 0.02 µM
COc1cccc(OCC(=O)c2ccc(Br)cc2)c1,12.5 µM,50 µM,19 µM,12.5 µM,19 µM,> 100 µM,50 µM,25 µM,25 µM,50 µM,50 µM,9.4 µM,> 100 µM,25 µM,50 µM,> 100 µM,19 µM,9.4 µM
c1coc(CNc2nc(N3CCCCC3)nc3ccccc23)c1,4.7 µM,12.5 µM,19 µM,12.5 µM,6.25 µM,27.8 µM,6.25 µM,25 µM,12.5 µM,25 µM,25 µM,9.4 µM,18.6 µM,25 µM,9.4 µM,8.41 µM,6.25 µM,9.4 µM
Nc1c2c(nc3sc4c(c13)CCCC4)CCCC2,12.5 µM,25 µM,25 µM,50 µM,12.5 µM,94.6 µM,25 µM,50 µM,> 50 µM,37 µM,> 50 µM,1.56 µM,34.9 µM,12.5 µM,25 µM,52 µM,19 µM,2.3 µM

# From ChEMBL document CHEMBL3832761, “MMV Pathogen Box Bioactivity Data” (2017)
